Target: T1, PDE5 enzyme isolated from human platelets (Homo sapiens, UniProt O76074)
T1 construct: The PDE5 enzyme for use in the assay can be obtained from human platelets; from tissue; host or cells: human platelets
Experiment: Alternative human platelet PDE5 enzyme inhibition scintillation proximity assay (Method 2)
Format: biochemical
Conditions: cGMP substrate 50 nM, 60 minutes at room temperature
Description: The IC50 of a test compound can be measured using an in vitro assay using PDE5 enzyme isolated from human platelets. The IC50 is the concentration of test compound required to inhibit the hydrolysis of cGMP to GMP by the PDE5 enzyme by 50% relative to the activity of uninhibited controls. The PDE5 enzyme for use in the assay can be obtained from human platelets by appropriate modification of the method of Thompson, W J et al.; Biochemistry 18(23), 5228-5237, 1979, as described by Ballard S A et al.; J. Urology 159(6), 2164-2171, 1998. The PDE5 enzyme so obtained can be used to catalyze the hydrolysis of [^3H]cGMP (Amersham Biosciences) to 5′ nucleotide [^3H]GMP. The [^3H]GMP binds to yttrium silicate SPA beads (Amersham Biosciences) and is detected by scintillation counting. More specifically, the effect of a test compound at different concentrations can be evaluated in the assay by contacting the compound with a fixed amount of PDE5 enzyme in the presence of substrate (cGMP […] in a 3:1 ratio unlabelled to [^3H]-labeled). Scintillation counting can be used as described above to determine relative PDE5 enzyme activity. The inhibition of PDE5 enzyme activity is then calculated relative to total PDE5 enzyme activity of uninhibited controls.
Method 2: Alternative Human Platelet PDE5 Enzyme Inhibition Scintillation Proximity Assay
PDE5 IC50 Assay: 96-Well Microtiter Plate Format
Buffer A: 20 mM Tris-HCl, 5 mM MgCl2, pH 7.4
Buffer B: 2 mg/ml BSA in Buffer A (enzyme buffer)
cGMP substrate: Final concentration of 50 nM in assay
The amount of ^3H-labeled substrate added depends upon the specific activity of [^3H]cGMP, and it is diluted in Buffer A.
PDE enzyme: Prepared in Buffer B. The dilution factor is determined by enzyme activity.
SPA beads: 4 mg/ml suspension prepared in dH2O.
Stocks of standard and test compound are prepared at 2 mM in 100% DMSO. The test compound is serially diluted in a dilution plate using an 8-point ⅕ log dilution format such that the starting concentration in the assay is 2 μM for an initial IC50 screen. 27 μl of Buffer A are added to the wells of the assay plates. From the dilution plate, 3 μl of diluted compound is delivered in duplicate or 3 μl of 100% DMSO (for positive and negative controls) are added. 30 μl of enzyme are added. For the negative control wells, Buffer B is substituted in place of the enzyme. 30 μl of labeled substrate are added to all wells.
After incubating for 60 minutes at room temperature, the reaction is stopped with the addition of 30 μl of the yttrium silicate beads. These beads are dense and require constant agitation while being added to the plate. The plates are sealed and shaken on a plate shaker for fifteen minutes to allow the beads to bind the GMP product.
After allowing the beads to settle for 30 minutes, plates are read on a NXT TopCount scintillation counter and the data are analyzed as follows. Percent inhibition values are calculated using the means of the 0% and 100% controls on each plate. The estimates of the 4-parameters of the logistic, sigmoid dose-response model are then calculated using the well-level percent inhibition value for the compound. The formula for the four-parameter logistic model may be expressed as Y=((a−d)/(1+(X/c)^b))+d, where Y is the response, X is the concentration, a is the lower asymptote (minimum response), d is the upper asymptote (maximum response), c is the model IC50 (in the same units as X), and b is the slope (as described in De Lean, A., P. J. Munson, and D. Rodbard (“Simultaneous analysis of families of sigmoidal curves: application to bioassay, radioligand assay, and physiological dose-response curves.” Am. J. Physiol. 235(2): E97-E102, 1978). These estimates are used to calculate the concentration that corresponds to 50% inhibition.
Compounds were tested in accordance with Method 2 above yielding the IC50 values described in Table C.

| Compound | IC50 [nM] |
| --- | --- |
| CCCOCCn1c(=O)c(N2CCN(CCO)CC2)nc2cnc(-c3cccc(F)c3F)cc21 [Example 26, 7-(2,3-difluorophenyl)-3-(4-(2-hydroxyethyl)piperazin-1-yl)-1-(2-propoxyethyl)pyrido[3,4-b]pyrazin-2(1H)-one] | 47.1 |
| CCCOCCn1c(=O)c(N2CCN(CCO)CC2)nc2cnc(-c3ccc(C)cc3)cc21 [Example 27, 3-(4-(2-hydroxyethyl)piperazin-1-yl)-1-(2-propoxyethyl)-7-p-tolylpyrido[3,4-b]pyrazin-2(1H)-one] | 9.31 |
| CCCOCCn1c(=O)c(N2CCN(CCO)CC2)nc2cnc(-c3ccc(C(C)=O)s3)cc21 [Example 28, 7-(5-acetylthiophen-2-yl)-3-(4-(2-hydroxyethyl)piperazin-1-yl)-1-(2-propoxyethyl)pyrido[3,4-b]pyrazin-2(1H)-one] | 43.1 |
| CCCOCCn1c(=O)c(N2CCN(CCO)CC2)nc2cnc(-c3cccc(OC)c3)cc21 [Example 29, 3-(4-(2-hydroxyethyl)piperazin-1-yl)-7-(3-methoxyphenyl)-1-(2-propoxyethyl)pyrido[3,4-b]pyrazin-2(1H)-one] | 3.07 |
| CCCOCCn1c(=O)c(N2CCN(CCO)CC2)nc2cnc(-c3cccc(CO)c3)cc21 [Example 30, 3-(4-(2-hydroxyethyl)piperazin-1-yl)-7-(3-(hydroxymethyl)phenyl)-1-(2-propoxyethyl)pyrido[3,4-b]pyrazin-2(1H)-one] | 311 |
| CCCOCCn1c(=O)c(N2CCN(CCO)CC2)nc2cnc(-c3cccnc3)cc21 [Example 31, 3-(4-(2-hydroxyethyl)piperazin-1-yl)-1-(2-propoxyethyl)-7-(pyridin-3-yl)pyrido[3,4-b]pyrazin-2(1H)-one] | 45.8 |
| CCCOCCn1c(=O)c(N2CCN(CCO)CC2)nc2cnc(-c3cccc(OCC)c3)cc21 [Example 32, 7-(3-ethoxyphenyl)-3-(4-(2-hydroxyethyl)piperazin-1-yl)-1-(2-propoxyethyl)pyrido[3,4-b]pyrazin-2(1H)-one] | 158 |
| CCCOCCn1c(=O)c(N2CCN(CCO)CC2)nc2cnc(-c3ccc(OC)c(F)c3)cc21 [Example 33, 7-(3-fluoro-4-methoxyphenyl)-3-(4-(2-hydroxyethyl)piperazin-1-yl)-1-(2-propoxyethyl)pyrido[3,4-b]pyrazin-2(1H)-one] | 13.6 |
| CCCOCCn1c(=O)c(N2CCN(CCO)CC2)nc2cnc(-c3cc(Cl)ccc3F)cc21 [Example 34, 7-(5-chloro-2-fluorophenyl)-3-(4-(2-hydroxyethyl)piperazin-1-yl)-1-(2-propoxyethyl)pyrido[3,4-b]pyrazin-2(1H)-one] | 12.6 |
| CCCOCCn1c(=O)c(N2CCN(CCO)CC2)nc2cnc(-c3ccc(OC)c(C)c3)cc21 [Example 35, 3-(4-(2-hydroxyethyl)piperazin-1-yl)-7-(4-methoxy-3-methylphenyl)-1-(2-propoxyethyl)pyrido[3,4-b]pyrazin-2(1H)-one] | 1.69 |
| CCCOCCn1c(=O)c(N2CCN(CCO)CC2)nc2cnc(-c3cccc(C)c3)cc21 [Example 36, 3-(4-(2-hydroxyethyl)piperazin-1-yl)-1-(2-propoxyethyl)-7-m-tolylpyrido[3,4-b]pyrazin-2(1H)-one] | 423 |
| CCCOCCn1c(=O)c(N2CCN(CCO)CC2)nc2cnc(-c3ccccc3O)cc21 [Example 37, 3-(4-(2-hydroxyethyl)piperazin-1-yl)-7-(2-hydroxyphenyl)-1-(2-propoxyethyl)pyrido[3,4-b]pyrazin-2(1H)-one] | 18.1 |
| CCCOCCn1c(=O)c(N2CCN(CCO)CC2)nc2cnc(-c3ccccc3F)cc21 [Example 38, 7-(2-fluorophenyl)-3-(4-(2-hydroxyethyl)piperazin-1-yl)-1-(2-propoxyethyl)pyrido[3,4-b]pyrazin-2(1H)-one] | 42.2 |
| CCCOCCn1c(=O)c(N2CCN(CC)CC2)nc2cnc(-c3ccc(OC)nc3)cc21 [Example 39, 3-(4-ethylpiperazin-1-yl)-7-(6-methoxypyridin-3-yl)-1-(2-propoxyethyl)pyrido[3,4-b]pyrazin-2(1H)-one] | 0.217 |
| CCCOCCn1c(=O)c(N2CCCC(C(N)=O)C2)nc2cnc(-c3ccc(OC)nc3)cc21 (centres unmarked) [Example 40, 1-(1,2-dihydro-7-(6-methoxypyridin-3-yl)-2-oxo-1-(2-propoxyethyl)pyrido[3,4-b]pyrazin-3-yl)piperidine-3-carboxamide] | 0.296 |
| CCCOCCn1c(=O)c(N2CCC(C(N)=O)CC2)nc2cnc(-c3ccc(OC)nc3)cc21 [Example 41, 1-(1,2-dihydro-7-(6-methoxypyridin-3-yl)-2-oxo-1-(2-propoxyethyl)pyrido[3,4-b]pyrazin-3-yl)piperidine-4-carboxamide] | 0.249 |
| CCCOCCn1c(=O)c(N2CCC(O)C2)nc2cnc(-c3ccc(OC)nc3)cc21 (centres unmarked) [Example 42, 3-(3-hydroxypyrrolidin-1-yl)-7-(6-methoxypyridin-3-yl)-1-(2-Propoxyethyl)pyrido[3,4-b]pyrazin-2(1H)-one] | 0.421 |
| CCCOCCn1c(=O)c(N2CCN(CC(C)(C)O)CC2)nc2cnc(-c3ccc(OC)nc3)cc21 [Example 43, 3-(4-(2-hydroxy-2-methylpropyl)piperazin-1-yl)-7-(6-methoxypyridin-3-yl)-1-(2-propoxyethyl)pyrido[3,4-b]pyrazin-2(1H)-one] | 0.208 |
| CCCOCCn1c(=O)c(N2CCN([C@@H](C)[C@@H](C)O)CC2)nc2cnc(-c3ccc(OC)nc3)cc21 [Example 44, 3-(4-((2S,3R)-3-hydroxybutan-2-yl)piperazin-1-yl)-7-(6-methoxypyridin-3-yl)-1-(2-propoxyethyl)pyrido[3,4-b]pyrazin-2(1H)-one] | 0.33 |
| CCCOCCn1c(=O)c(N2CCN([C@H](C)[C@@H](C)O)CC2)nc2cnc(-c3ccc(OC)nc3)cc21 [Example 45, 3-(4-((2R,3R)-3-hydroxybutan-2-yl)piperazin-1-yl)-7-(6-methoxypyridin-3-yl)-1-(2-propoxyethyl)pyrido[3,4-b]pyrazin-2(1H)-one] | 0.295 |
| CCCOCCn1c(=O)c(N2CCN(C[C@H](C)O)CC2)nc2cnc(-c3ccc(OC)nc3)cc21 [Example 46, 3-(4-((S)-2-hydroxypropyl)piperazin-1-yl)-7-(6-methoxypyridin-3-yl)-1-(2-propoxyethyl)pyrido[3,4-b]pyrazin-2(1H)-one] | 0.306 |
| CCCOCCn1c(=O)c(N2CCN(C[C@@H](C)O)CC2)nc2cnc(-c3ccc(OC)nc3)cc21 [Example 47, 3-(4-((R)-2-hydroxypropyl)piperazin-1-yl)-7-(6-methoxypyridin-3-yl)-1-(2-propoxyethyl)pyrido[3,4-b]pyrazin-2(1H)-one] | 0.226 |
| CCCOCCn1c(=O)c(N2CCCN(CCCO)CC2)nc2cnc(-c3ccc(OC)nc3)cc21 [Example 48, 3-(4-(3-hydroxypropyl)-1,4-diazepan-1-yl)-7-(6-methoxypyridin-3-yl)-1-(2-propoxyethyl)pyrido[3,4-b]pyrazin-2(1H)-one] | 1.07 |

— US7902195B2, “Pyridine [3,4-b] pyrazinones” (Pharmacia & Upjohn Company LLC, priority 2006, dated 2011)
